Source: patent publication US20100298377A1, “NOVEL SUBSTITUTED INDAZOLES, THE PREPARATION THEREOF AND USE OF SAME IN THERAPEUTICS” (SANOFI-AVENTIS, priority 2007, published 2010)

How the values were obtained:
AKT1 = AKT1 (Homo sapiens, UniProt P31749, S473D); test: Determination of the IC50 for AKT1 (HTRF); format: biochemical; conditions: AKT1 without PH domain, activated by PDK1
Outline: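 HTRF assay of AKT1 (S473D) kinase activity on a biotinylated peptide substrate, with 100 μM ATP and 10 μM peptide in the initiating solution.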

[1] = molecular target: T1, Human S6K1 (24-421) T412E protein (Homo sapiens, UniProt P23443, T412E); test: Determination of the IC50 for S6K1 (HTRF substrate phosphorylation test); format: biochemical; conditions: S6K1 activated by PDK1, ATP 30 μM
T1 construct: Human S6K1 (24-421) T412E protein; made in house; host or cells: Sf21 insect cells
Protocol: Determination of the IC50 for S6K1
The inhibitory potential of the compounds for S6K1 is evaluated in an enzymatic test of phosphorylation of substrate in HTRF (Homogenous Time-Resolved Fluorescence) format. Human S6K1 (24-421) T412E protein is expressed in sf21 cells and purified by chromatography on a nickel chelate column. It is activated by PDK1.
The test comprises two steps, both performed at RT. The phosphorylation reaction takes place during the first step and the revelation step is performed during the second. […] The final concentrations of compounds thus obtained during the incubation period range from 10 μM to 0.17 nM and the concentration of enzyme is 2 nM. After incubation for 20 minutes, the reaction is stopped and the revelation initiated by addition of 30 μl of a mixture of streptavidin XL 665 Xlent, ref. 611SAXLB Cis bio international, and a europium cryptate-coupled anti-phospho-GSK3 antibody, ref. 64CUSKAZ Cis bio international, dissolved in the revelation buffer (HEPES/NaOH 166.7 mM, EDTA 221.7 mM, KF 667.7 mM, BSA 0.167%, pH 7.0). The reaction takes place in a black half-well plate ref. 3694 Costar.
A mixture of the reaction medium after each addition of reagent is obtained by agitation for a few minutes at 700-1000 rpm on a Heidolph Titramax 100 machine. The reading is taken on a TECAN Ultra Evolution machine after at least one night and up to 3 nights at 4° C. The reading settings are as follows: excitation wavelength 320 nm, emission wavelengths 620 and 665 nm, lag time 150 μs, integration time 500 μs.
For each point, the ΔF % is calculated as follows:
R(Ratio)=counts665 nm/counts620 nm
The IC50 values are calculated by means of the XLfit4 205 equation.

[2] = test system: LNCaP clone FGC cells (human prostate carcinoma cells); test: Proliferation of LNCaP cells, intracellular ATP, CellTiter-Glo test; format: cell-based; conditions: Homo sapiens, LNCaP-Clone-FGC, 96 hours
Description: (§1) b. Study of the Proliferation of Human Tumoral MIA PaCa-2, C-433, LnCaP and MCF7 Cells via Assay of the Intracellular ATP Using the Celltiter-Glo™ Test
(§2) The kit CellTiter-Glo™ for measuring cell viability via luminescence ([…]) is a homogeneous method for determining the number of viable cells in culture, based on quantification of the ATP present in the cells, and which indicates the presence of metabolically active cells.
(§3) The cell lines used in this test were the following: MIA PaCa-2 cells (human pancreatic carcinoma cells, ATCC, CRL-1420), C-433 cells (human Ewing sarcoma cells, DSMZ, ACC 268), LNCaP clone FGC cells (human prostate carcinoma cells, ATCC, CRL-1740), MCF7 cells (human breast carcinoma cells, ECACC, #86012803). The cells MIAPaCa-2 and LNCaP were cultured in D-MEM culture medium (Invitrogen Gibco, #419656-039) containing 10% foetal calf serum (FCS, Invitrogen Gibco, #10500-064) and 2 mM L-Glutamine (Invitrogen Gibco, #25030-024); the C-433 cells were cultured in MCCoy's 5A culture medium (Invitrogen Gibco, #26600-023)/RPMI 1640 (Invitrogen Gibco, #31870-025) (50/50) containing 10% FCS and 2 mM L-glutamine; the MCF7 cells were cultured in EMEM culture medium (EMEM, Biowhittaker, Lonza, #BE12-662F) containing 10% FCS and 2 mM L-Glutamine.
(§4) Evaluation of the Cell Viability via Luminescence Measurement: Celltiter-Glo™ Test
(§5) On day 1, the cells were inoculated at 1000 (C-433), 2500 (MCF7) and 10000 (LNCaP and MIA PaCa-2) cells per well in black-bottomed 96-well microplates (NUNC fluoronunc, Fisherbioblock 2311K) in 135 μl of whole culture medium and incubated at 37° C., 5% CO2, for 3 to 6 hours. The cells were then incubated with increasing concentrations of molecules diluted in dimethyl sulfoxide (DMSO, Sigma D2650). The molecules were added in a volume of 15 μl of a 10-fold concentrated solution in a final volume of 150 μl, the final percentage of DMSO being 0.1%. The cells were incubated at 37° C., 5% CO2, for 96 hours. After 4 days of treatment with the molecules, the CellTiter-Glo™ was performed by following the manufacturer's instructions (Kit Celltiter-Glo Luminescent, PROMEGA #G7571). Briefly, the cell plates were equilibrated for about 30 minutes at RT and 100 μl per well of Celltiter-Glo reagent were added. The cells were incubated for 1 hour at RT for lysis of the cells and stabilization of the signal. The intracellular ATP was quantified by measuring the luminescence in rlu units (relative luminescence units), 96 hours after initiation of the treatment, using a luminescence counter (Wallac). The tests were performed in six replicates.
(§6) i) the mean±s.e.m. of each series of well replicates was calculated;
(§7) ii) the maximum response is given by positive control wells containing untreated cells; this control was performed in 12 replicates;
(§8) iii) the minimum response is given by cell-free and untreated negative control wells; this control was performed in 6 replicates;
(§9) iv) using these maximum (100%) and minimum (0%) response values, respectively, the data were normalized to give a percentage relative to the maximum response;
(§10) The IC50 values were calculated by […] with the XLfit software (IDBS, UK) using formula 205.

[3] = test system: MCF7 cells (human breast carcinoma cells); test: Proliferation of MCF7 cells, intracellular ATP, CellTiter-Glo test; format: cell-based; conditions: Homo sapiens, MCF7, 96 hours
Description: as §1, §2, §3, §4, §5, §6, §7, §8, §9, §10

T1 sequence (P23443 24-421 T412E): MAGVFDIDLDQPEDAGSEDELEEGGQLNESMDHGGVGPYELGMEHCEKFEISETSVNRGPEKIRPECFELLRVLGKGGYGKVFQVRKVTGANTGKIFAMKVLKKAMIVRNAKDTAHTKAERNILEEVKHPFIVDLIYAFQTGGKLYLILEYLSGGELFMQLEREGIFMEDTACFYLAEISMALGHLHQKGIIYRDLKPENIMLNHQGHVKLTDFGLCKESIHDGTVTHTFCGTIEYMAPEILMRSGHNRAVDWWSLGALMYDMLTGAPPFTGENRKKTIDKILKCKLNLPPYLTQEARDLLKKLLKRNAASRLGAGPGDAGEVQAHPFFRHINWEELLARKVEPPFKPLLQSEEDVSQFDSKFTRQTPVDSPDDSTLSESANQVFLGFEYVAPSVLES
Chain of AKT1 (P31749 118-480 S473D limits assumed): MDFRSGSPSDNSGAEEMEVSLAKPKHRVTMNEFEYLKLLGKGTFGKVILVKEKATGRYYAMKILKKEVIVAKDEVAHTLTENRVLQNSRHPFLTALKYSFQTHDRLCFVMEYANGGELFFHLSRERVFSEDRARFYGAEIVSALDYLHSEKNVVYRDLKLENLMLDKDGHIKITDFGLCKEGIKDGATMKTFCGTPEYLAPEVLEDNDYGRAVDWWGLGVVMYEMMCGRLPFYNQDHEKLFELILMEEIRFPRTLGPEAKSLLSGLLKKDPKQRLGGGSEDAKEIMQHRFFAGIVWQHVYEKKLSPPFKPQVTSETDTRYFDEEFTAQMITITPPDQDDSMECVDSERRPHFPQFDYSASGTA

SMILES | IC50 (AKT1) [nM] | IC50 [1] [nM] | IC50 [2] [nM] | IC50 [3] [nM]
O=C(Nc1ccc2[nH]ncc2c1)N[C@@H](c1cc(F)cc(Cl)c1)[C@@H]1CCCCN1 [Ex 3, 1-{(S)-(3-Chloro-5-fluorophenyl)[(2S)-piperid-2-yl]methyl}-3-(1H-indazol-5-yl)urea] | < 100 | 100 to 500 | 280 | 1100
O=C(Nc1ccc2[nH]ncc2c1)N[C@@H](c1ccc(Cl)c(Cl)c1)[C@@H]1CCCCN1 [Ex 4, 1-{(S)-(3,4-Dichlorophenyl)[(2S)-piperid-2-yl]methyl}-3-(1H-indazol-5-yl)urea] | < 100 | 100 to 500 | 1200 | 2700
O=C(Nc1ccc2[nH]ncc2c1)NC(c1cc(F)cc(Cl)c1)C1CCCCN1 (stereo not shown) [Ex 5, 1-[(3-Chloro-5-fluorophenyl)(piperid-2-yl)methyl]-3-(1H-indazol-5-yl)urea] | < 100 | 100 to 500 | – | 1420
CN1CCCCC1C(NC(=O)Nc1ccc2[nH]ncc2c1)c1cc(F)cc(Cl)c1 (stereo not shown) [Ex 11, 1-[(3-Chloro-5-fluorophenyl)(1-methylpiperid-2-yl)methyl]-3-(1H-indazol-5-yl)urea] | < 100 | 500 to 2000 | – | –
CN1CCCCC1C(NC(=O)Nc1ccc2[nH]nc(-c3ccncc3)c2c1)c1ccccc1 [Ex 13, 1-[(1-Methylpiperid-2-yl)(phenyl)methyl]-3-(3-pyrid-4-yl-1H-indazol-5-yl)urea((S,2S),(R,2R))] | 100 to 500 | 500 to 2000 | – | –
Cc1n[nH]c2ccc(NC(=O)NC(c3ccccc3)C3CCCCN3C)cc12 [Ex 18, 3-Methyl-5-({[(1-methylpiperid-2-yl)(phenyl)methyl]carbamoyl}amino)-1H-indazole ((S,2S),(R,2R))] | < 100 | 500 to 2000 | 1050 | 5800
CN1CCCCC1C(NC(=O)Nc1cc(F)c2[nH]ncc2c1)c1ccccc1 [Ex 21, 1-(7-Fluoro-1H-indazol-5-yl)-3-[(1-methylpiperid-2-yl)(phenyl)methyl]urea((S,2S),(R,2R))] | 100 to 500 | 500 to 2000 | 861 | –
CN1CCCCC1C(NC(=O)Nc1ccc2[nH]nc(C#Cc3ccc(F)cc3)c2c1)c1ccccc1 [Ex 24, 1-{3-[(4-Fluorophenyl)ethynyl]-1H-indazol-5-yl}-3-[(1-methylpiperid-2-yl)(phenyl)methyl]urea((S,2S),(R,2R))] | < 100 | 100 to 500 | – | –
CN1CCCCC1C(NC(=O)Nc1ccc2[nH]nc(C#Cc3cccnc3)c2c1)c1ccccc1 [Ex 25, 1-[(1-Methylpiperid-2-yl)(phenyl)methyl]-3-[3-(pyrid-3-ylethynyl)-1H-indazol-5-yl]urea((S,2S),(R,2R))] | < 100 | 100 to 500 | 611 | 1290
S=C(Nc1ccc2[nH]ncc2c1)N[C@@H](c1ccc(Cl)c(Cl)c1)[C@@H]1CCCCN1 [Ex 31, 1-{(S)-(3,4-Dichlorophenyl)[(2S)-piperid-2-yl]methyl}-3-(1H-indazol-5-yl)thiourea] | < 100 | 100 to 500 | 2940 | 4450
O=C(Nc1ccc2[nH]ncc2c1)OC(c1cc(Cl)cc(Cl)c1)C1CCCCN1 [Ex 34, (3,5-Dichlorophenyl)[piperid-2-yl]methyl 1H-indazol-5-ylcarbamate((S,2S),(R,2R))] | < 100 | 500 to 2000 | – | –
O=C(Nc1ccc2[nH]ncc2c1)O[C@@H](c1cc(F)cc(Cl)c1)[C@@H]1CCCCN1 [Ex 35, (S)-(3-Chloro-5-fluorophenyl)[(2S)-piperid-2-yl]methyl 1H-indazol-5-ylcarbamate] | < 100 | 100 to 500 | 319 | 1050
CN1CCCCC1C(OC(=O)Nc1ccc2[nH]ncc2c1)c1cc(F)cc(Cl)c1 (stereo not shown) [Ex 36, (3-Chloro-5-fluorophenyl)(1-methylpiperid-2-yl)methyl 1H-indazol-5-ylcarbamate] | < 100 | 500 to 2000 | 2230 | –
O=C(Nc1ccc2[nH]ncc2c1)O[C@H](c1ccc(Cl)c(Cl)c1)[C@H]1CCCCN1 [Ex 37, (R)-(3,4-Dichlorophenyl)[(2R)-piperid-2-yl]methyl 1H-indazol-5-ylcarbamate] | < 100 | 100 to 500 | 2370 | –
O=C(Nc1ccc2[nH]ncc2c1)O[C@@H](c1ccc(Cl)c(Cl)c1)[C@@H]1CCCCN1 [Ex 38b, (S)-(3,4-Dichlorophenyl)[(2S)-piperid-2-yl]methyl 1H-indazol-5-ylcarbamate] | < 100 | 100 to 500 | 1710 | 2400
O=C(Nc1ccc2[nH]ncc2c1)O[C@@H](c1cccc(Br)c1)[C@@H]1CCCCN1 [Ex 46] | < 100 | 100 to 500 | 600 | 1300
